Data published in patent US7157495B2, “Hexahydrofuro[2,3-B]furan-3-YL-N-{3-[(1,3-benzodioxol-5-ylsulfonyl)(isobutyl)amino]-1-benzyl-2-hydroxypropyl}carbamate as retroviral protease inhibitor” (Tibotec Pharmaceuticals, Ltd., priority 1999, dated 2007).

Test system: HIV strain r13020
Assay: Antiviral spectrum, protease inhibitor resistant strain
Assay type: cell-based
Details: Human immunodeficiency virus 1, strain r13020; L10I, K20R, M36I, 154V, A71V, V82T, 184V
Protocol: (§1) HIV- or mock-infected MT4 cells were incubated for five days in the presence of various concentrations of the inhibitor. At the end of the incubation period, all HIV-infected cells have been killed by the replicating virus in the control cultures in the absence of any inhibitor. Cell viability is measured by measuring the concentration of MTT, a yellow, water soluble tetrazolium dye that is converted to a purple, water insoluble formazan in the mitochondria of living cells only. Upon solubilization of the resulting formazan crystals with isopropanol, the absorbance of the solution is monitored at 540 nm. The values correlate directly to the number of living cells remaining in the culture at the completion of the five day incubation. The inhibitory activity of the compound was monitored on the virus-infected cells and was expressed as IC50 and IC90. These values represent the amount of the compound required to protect 50% and 90%, respectively, of the cells from the cytopathogenic effect of the virus. The toxicity of the compound was measured on the mock-infected cells and was expressed as CC50, which represents the concentration of compound required to inhibit the growth of the cells by 50%. The select index (SI) (ratio CC50/IC50) is an indication of the selectivity of the anti-HIV activity of the inhibitor.
(§2) Because of the increasing emergence of drug resistant HIV strains, compound 13 and compound 14 were tested for its potency against HIV strains harbouring several mutations. These mutations are associated with resistance to protease inhibitors and result in viruses that show various degrees of phenotypic cross-resistance to five of the currently commercially available drugs (Saquinavir, Ritonavir, Nelfinavir, Indinavir and Amprenavir).

| SMILES | IC50 |
| --- | --- |
| CC(C)CN(CC(O)C(Cc1ccccc1)NC(=O)OC1COC2OCCC12)S(=O)(=O)c1ccc2c(c1)OCO2 (centres unmarked) [Compound 14] | 0.8 nM |

Test system: HIV strain r13022
Assay: as above
Assay type: cell-based
Details: Human immunodeficiency virus 1, strain r13022; K20R, M36I, M46I/M, 154V, L63P, A71V/I, V82T, L90M
Protocol: as §1, §2

| SMILES | IC50 |
| --- | --- |
| CC(C)CN(CC(O)C(Cc1ccccc1)NC(=O)OC1COC2OCCC12)S(=O)(=O)c1ccc2c(c1)OCO2 (centres unmarked) [Compound 14] | 1.1 nM |

Test system: HIV strain r13025
Assay: as above
Assay type: cell-based
Details: Human immunodeficiency virus 1, strain r13025; L10I, M46I, L63P, A71V, I84V
Protocol: as §1, §2

| SMILES | IC50 |
| --- | --- |
| CC(C)CN(CC(O)C(Cc1ccccc1)NC(=O)OC1COC2OCCC12)S(=O)(=O)c1ccc2c(c1)OCO2 (centres unmarked) [Compound 14] | 32.8 nM |

Test system: HIV strain r13034
Assay: as above
Assay type: cell-based
Details: Human immunodeficiency virus 1, strain r13034; L10I, M36I, I54V, L63P, A71V, I84V
Protocol: as §1, §2

| SMILES | IC50 |
| --- | --- |
| CC(C)CN(CC(O)C(Cc1ccccc1)NC(=O)OC1COC2OCCC12)S(=O)(=O)c1ccc2c(c1)OCO2 (centres unmarked) [Compound 14] | 5.5 nM |

Test system: HIV strain r13027
Assay: as above
Assay type: cell-based
Details: Human immunodeficiency virus 1, strain r13027; L10M/I, K20R, M36I, L63P, A71V, G73S, V77I, I84V, L90M
Protocol: as §1, §2

| SMILES | IC50 |
| --- | --- |
| CC(C)CN(CC(O)C(Cc1ccccc1)NC(=O)OC1COC2OCCC12)S(=O)(=O)c1ccc2c(c1)OCO2 (centres unmarked) [Compound 14] | 7.3 nM |

Test system: HIV strain r13037
Assay: as above
Assay type: cell-based
Details: Human immunodeficiency virus 1, strain r13037; L10I, M46I, I54V, L63P, A71T, V77I, V82A, L90M
Protocol: as §1, §2

| SMILES | IC50 |
| --- | --- |
| CC(C)CN(CC(O)C(Cc1ccccc1)NC(=O)OC1COC2OCCC12)S(=O)(=O)c1ccc2c(c1)OCO2 (centres unmarked) [Compound 14] | 0.5 nM |

Test system: HIV strain r13030
Assay: as above
Assay type: cell-based
Details: Human immunodeficiency virus 1, strain r13030; L10V/I, M36I, I54V, L63P, A71V, V82T, L90M
Protocol: as §1, §2

| SMILES | IC50 |
| --- | --- |
| CC(C)CN(CC(O)C(Cc1ccccc1)NC(=O)OC1COC2OCCC12)S(=O)(=O)c1ccc2c(c1)OCO2 (centres unmarked) [Compound 14] | 0.2 nM |

Test system: HIV strain r13024
Assay: as above
Assay type: cell-based
Details: Human immunodeficiency virus 1, strain r13024; L10I, M36I, L63P, A71V, G73S, I84V, L90M
Protocol: as §1, §2

| SMILES | IC50 |
| --- | --- |
| CC(C)CN(CC(O)C(Cc1ccccc1)NC(=O)OC1COC2OCCC12)S(=O)(=O)c1ccc2c(c1)OCO2 (centres unmarked) [Compound 14] | 5.5 nM |

Test system: HIV strain r13026
Assay: as above
Assay type: cell-based
Details: Human immunodeficiency virus 1, strain r13026; L10I, M46I, I54V, L63P, A71V, V82T, I84V
Protocol: as §1, §2

| SMILES | IC50 |
| --- | --- |
| CC(C)CN(CC(O)C(Cc1ccccc1)NC(=O)OC1COC2OCCC12)S(=O)(=O)c1ccc2c(c1)OCO2 (centres unmarked) [Compound 14] | 0.8 nM |

Test system: HIV strain r13036
Assay: as above
Assay type: cell-based
Details: Human immunodeficiency virus 1, strain r13036; L10I, L63P, A71V, G73S, L90M
Protocol: as §1, §2

| SMILES | IC50 |
| --- | --- |
| CC(C)CN(CC(O)C(Cc1ccccc1)NC(=O)OC1COC2OCCC12)S(=O)(=O)c1ccc2c(c1)OCO2 (centres unmarked) [Compound 14] | 2.9 nM |

Test system: HIV strain r13031
Assay: as above
Assay type: cell-based
Details: Human immunodeficiency virus 1, strain r13031; G48V, I54V, V77I, V82A, L90M/L
Protocol: as §1, §2

| SMILES | IC50 |
| --- | --- |
| CC(C)CN(CC(O)C(Cc1ccccc1)NC(=O)OC1COC2OCCC12)S(=O)(=O)c1ccc2c(c1)OCO2 (centres unmarked) [Compound 14] | 0.3 nM |

Test system: HIV strain r13021
Assay: as above
Assay type: cell-based
Details: strain r13021; L10I, K20R, L24I, M36I, I54V, L63P, A71V, V82T, I84V
Protocol: as §1, §2

| SMILES | IC50 |
| --- | --- |
| CC(C)CN(CC(O)C(Cc1ccccc1)NC(=O)OC1COC2OCCC12)S(=O)(=O)c1ccc2c(c1)OCO2 (centres unmarked) [Compound 14] | 1.5 nM |

Test system: HIV strain r13029
Assay: as above
Assay type: cell-based
Details: Human immunodeficiency virus 1, strain r13029; L10I/L, M36I, M46L, L63P, A71V, I84V, N88D, L90M
Protocol: as §1, §2

| SMILES | IC50 |
| --- | --- |
| CC(C)CN(CC(O)C(Cc1ccccc1)NC(=O)OC1COC2OCCC12)S(=O)(=O)c1ccc2c(c1)OCO2 (centres unmarked) [Compound 14] | 5.2 nM |

Test system: HIV strain r13023
Assay: as above
Assay type: cell-based
Details: strain r13023; L10I, M36I/M, I54V/I, L63P, A71V, G73S, I84V, L90M
Protocol: as §1, §2

| SMILES | IC50 |
| --- | --- |
| CC(C)CN(CC(O)C(Cc1ccccc1)NC(=O)OC1COC2OCCC12)S(=O)(=O)c1ccc2c(c1)OCO2 (centres unmarked) [Compound 14] | 2.8 nM |

Test system: HIV strain r13035
Assay: as above
Assay type: cell-based
Details: Human immunodeficiency virus 1, strain r13035; D30N, L63P, V77I, N88D
Protocol: as §1, §2

| SMILES | IC50 |
| --- | --- |
| CC(C)CN(CC(O)C(Cc1ccccc1)NC(=O)OC1COC2OCCC12)S(=O)(=O)c1ccc2c(c1)OCO2 (centres unmarked) [Compound 14] | 0.2 nM |

Test system: HIV strain r13033
Assay: as above
Assay type: cell-based
Details: Human immunodeficiency virus 1, strain r13033; L10I, M46L, I54V, L63P, A71V, V82A, L90M
Protocol: as §1, §2

| SMILES | IC50 |
| --- | --- |
| CC(C)CN(CC(O)C(Cc1ccccc1)NC(=O)OC1COC2OCCC12)S(=O)(=O)c1ccc2c(c1)OCO2 (centres unmarked) [Compound 14] | 1.1 nM |

Test system: HIV-1 strain LAI
Assay: Cellular anti-HIV assay in MT4 cells (MTT)
Assay type: cell-based
Details: Human immunodeficiency virus 1, MT4, strain LAI; read-out: IC50
Protocol: as §1

| SMILES | IC50 |
| --- | --- |
| CC(C)CN(CC(O)C(Cc1ccccc1)NC(=O)OC1COC2OCCC12)S(=O)(=O)c1ccc2c(c1)OCO2 (centres unmarked) [Compound 14] | 0.8 nM |
